These results are taken from ChEMBL document CHEMBL1130736, “Syntheses of new modified Phe-Pro peptides. Use of proline replacements in potential HIV inhibitors” (Bioorg Med Chem Lett, 1998).

Peptide text beside a SMILES is read from it. * marks the point of attachment. Boc = CC(C)(C)OC(=O)* Bounds are passed on as bounds.

A short description of data set [1]: Partition coefficient (logP). It counts as physicochemical. The following applies: octanol/water.
Data set [2] deals with MT4. The data set is described as follows: Concentration required to inhibit syncytia formation by 50% in HIV infected HIV-BRU MT-4 cells. It counts as functional, cell-based, Homo sapiens.
Data set [3] relates to MT4. The data set is described as follows: Concentration required to cause 50% death of uninfected MT-4 cells. As to conditions: Homo sapiens; call rule not given here. It counts as functional.
Setting [4] is: Homo sapiens, MT4, read-out: IC50.

As usually defined, the logP is a log measure of how a compound divides between an organic and an aqueous phase. The low end stands for a more hydrophilic compound, the high end for a more lipophilic compound. Usually IC50 stands for the concentration that inhibits the measured activity by half. As usually defined, the CC50 is the concentration giving 50% cytotoxicity. A higher CC50 goes with lower toxicity to the cells. Regarding `O=C1CCN(C(=O)[C@H](Cc2ccccc2)NC(=O)N(c2ccccc2)c2ccccc2)C1`, in data set [1], the lipophilicity (logP) came out at 4.86. The IC50 result in data set [2] (mt4) was “Not Active”. Further, in data set [3], the half-maximal cytotoxic concentration (CC50) was > 100 µM.

In turn, `O=C1CCN(C(=O)[C@H](Cc2ccccc2)NC(=O)c2cccnc2)C1` returned a lipophilicity (logP) in data set [1] of 2.31. Further, in data set [2] (setting [4]), the 50% inhibitory concentration (IC50) stood at 0.1 µM. Also, the CC50 in data set [3] was > 100 µM.

In data set [1], `CCCCCCCCOC(=O)N[C@@H](Cc1ccccc1)C(=O)N1CCC(=O)C1` registered a logP of 5.38. For the same molecule, the concentration for half-maximal inhibition (IC50) entry in data set [2] (mt4) is “Not Active”. Besides, in data set [3], the CC50 is 50 µM.

For the molecule `CN(C(=O)N[C@@H](Cc1ccccc1)C(=O)N1CCC(=O)C1)c1ccccc1`, the log partition coefficient (logP) in data set [1] was found to be 3.33. Besides, the half-inhibitory concentration (IC50) entry in data set [2] (mt4) is reported as “Not Active”. In data set [3], this molecule had a cytotoxic concentration (CC50) of 50 µM.

Regarding `O=C1CCN(C(=O)[C@H](Cc2ccccc2)NC(=O)OCc2ccccc2)C1`, the logP in data set [1] turned out to be 3.97. The IC50 in data set [2] (setting [4]) stood at 1 µM. In data set [3], this molecule gave a CC50 of 50 µM.

Take `CC(C)(C)OC(=O)N[C@@H](Cc1ccccc1)C(=O)N1CCC(=O)C1`: in data set [1], the logP was 3.97. Moreover, the IC50 in data set [2] (setting [4]) amounted to 10 µM. Moreover, it took 100 µM to reach half-maximal cytotoxicity in data set [3] (CC50).

For `O=C1CCN(C(=O)[C@H](Cc2ccccc2)NC(=O)c2ccccc2)C1`, in data set [1], the logP turned out to be 3.17. Also, in data set [2] (mt4), the IC50 entry is reported as “Not Active”. The CC50 in data set [3] is 50 µM.

Take `CC(C)(C)OC(=O)N[C@@H](Cc1ccccc1)C(=O)N1CCC(O)C1` (stereo not given in full): the logP in data set [1] came out at 3.15. The half-maximal inhibitory concentration (IC50) in data set [2] (setting [4]) worked out at 50 µM. Also, half-maximal cytotoxicity in data set [3] (CC50) was put at 100 µM.

Turning to `CC(C)(C)OC(=O)N[C@@H](Cc1ccccc1)C(=O)N1CCC[C@H]1C(=O)O` (Boc-Phe-Pro-OH), in data set [1], the logP came out at 3.96. For the same molecule, the IC50 result in data set [2] (mt4) is “Not Active”. Further, in data set [3], the cytotoxic concentration (CC50) is > 100 µM.

In the case of `O=C1CCN(C(=O)[C@H](Cc2ccccc2)NC(=O)c2ccc3ccccc3n2)C1`, the logP in data set [1] was determined as 3.44. The IC50 in data set [2] (setting [4]) was 10 µM. Moreover, the cytotoxic concentration (CC50) in data set [3] is > 100 µM.
